In patent publication US20260042762A1 (Kymera Therapeutics, Inc., priority 2018, published 2026):

Molecular target: T1, MerTK (Homo sapiens, UniProt Q12866)
T1 construct: endogenous in cells; host or cells: Jurkat cells
T1 sequence (Q12866 21-999): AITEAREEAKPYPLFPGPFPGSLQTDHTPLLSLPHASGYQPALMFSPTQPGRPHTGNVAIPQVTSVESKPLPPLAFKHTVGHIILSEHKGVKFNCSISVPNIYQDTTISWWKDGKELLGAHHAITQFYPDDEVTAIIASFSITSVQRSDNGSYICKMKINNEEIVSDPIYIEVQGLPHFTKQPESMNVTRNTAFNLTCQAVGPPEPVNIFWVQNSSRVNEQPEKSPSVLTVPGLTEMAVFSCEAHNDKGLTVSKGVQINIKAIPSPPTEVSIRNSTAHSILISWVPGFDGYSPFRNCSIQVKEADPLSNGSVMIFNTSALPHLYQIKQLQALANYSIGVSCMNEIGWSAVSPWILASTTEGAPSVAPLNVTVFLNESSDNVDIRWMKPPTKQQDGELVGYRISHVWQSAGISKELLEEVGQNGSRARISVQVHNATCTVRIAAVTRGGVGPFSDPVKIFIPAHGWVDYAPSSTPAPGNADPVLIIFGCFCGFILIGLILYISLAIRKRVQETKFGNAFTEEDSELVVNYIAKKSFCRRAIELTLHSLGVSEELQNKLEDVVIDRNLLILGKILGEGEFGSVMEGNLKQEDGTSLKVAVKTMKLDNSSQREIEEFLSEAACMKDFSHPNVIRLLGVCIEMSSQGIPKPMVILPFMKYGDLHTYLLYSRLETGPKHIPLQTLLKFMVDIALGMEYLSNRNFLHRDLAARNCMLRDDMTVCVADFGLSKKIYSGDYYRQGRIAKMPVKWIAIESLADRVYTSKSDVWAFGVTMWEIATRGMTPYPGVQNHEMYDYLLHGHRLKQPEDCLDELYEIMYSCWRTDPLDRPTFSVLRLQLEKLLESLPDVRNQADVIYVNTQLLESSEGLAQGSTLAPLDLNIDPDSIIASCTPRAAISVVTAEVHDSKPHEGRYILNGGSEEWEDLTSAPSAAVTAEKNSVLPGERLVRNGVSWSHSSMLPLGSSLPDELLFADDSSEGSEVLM
Assay: MerTk degradation in Jurkat cells (Western blot)
Type: cell-based
Settings: 0.001-1 μM, 4 hour-incubation at 37° C.
Method in brief: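 MerTK degradation was read by near-infrared Western blot, normalized to actin, in BCA-quantified lysates of Jurkat cells exposed to 0.001-1 μM compound for 4 h at 37 °C.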

Compound | Jurkat Max % MerTK Degradation
C[C@H](CC(F)(F)F)Nc1ncc2c(-c3ccc(CN4CCN(CCCO[C@H]5CCN(Cc6ccc7c(c6)n(C)c(=O)n7C6CCC(=O)NC6=O)C5)CC4)cc3)cn([C@H]3CC[C@H](O)CC3)c2n1 (stereo partly drawn) [I-210, 3-(3-methyl-2-oxo-5-[[(3R)-3-(3-[4-[(4-[7-[trans-4-hydroxycyclohexy1]-2-[[(2S)-4,4,4-trifluorobutan-2-yl]amino]pyrrolo[2,3-d]pyrimidin-5-yl]phenyl)methyl]piperazin-1-yl]propoxy)pyrrolidin-1-yl]methyl]-1,3-benzodiazol-1-yl)piperidine-2,6-dione] | C (maximum MerTK degradation less than or equal to 20% (≤20%))

Same assay, conditions: Jurkat, 4 h, 0.001-1 μM, 4 hour-incubation at 37° C., read-out: Jurkat Max % MerTK Degradation

Dmax | Compound
> 50% | CCC[C@H](C)Nc1ncc2c(n1)n([C@H]1CC[C@H](O)CC1)cc2[C@H]1CC[C@H](CN2CCN(CCCOC3CCN(Cc4ccc5c(c4)n(C)c(=O)n5C4CCC(=O)NC4=O)CC3)CC2)CC1 (stereo partly drawn) [I-208, 3-[3-methyl-2-oxo-5-([4-[3-(4-[[trans-4-[2-[(2S)-pentan-2-ylamino]-7-[trans-4-hydroxycyclohexyl]pyrrolo[2,3-d]pyrimidin-5-yl]cyclohexyl]methyl]piperazin-1-yl)propoxy]piperidin-1-yl]methyl)-1,3-benzodiazol-1-yl]piperidine-2,6-dione]
> 50% | CCC[C@H](C)Nc1ncc2c(n1)n([C@H]1CC[C@H](O)CC1)cc2[C@H]1CC[C@H](CN2CCN(CCCO[C@H]3CCN(Cc4ccc5c(c4)n(C)c(=O)n5C4CCC(=O)NC4=O)C3)CC2)CC1 (stereo partly drawn) [I-211, 3-(3-methyl-2-oxo-5-[[(3S)-3-[3-(4-[[trans-4-[2-[(2S)-pentan-2-ylamino]-7-[trans-4-hydroxycyclohexyl]pyrrolo[2,3-d]pyrimidin-5-yl]cyclohexyl]methyl]piperazin-1-yl)propoxy]pyrrolidin-1-yl]methyl]-1,3-benzodiazol-1-yl)piperidine-2,6-dione]
> 50% | Cc1ncsc1-c1ccc(CNC(=O)[C@@H]2C[C@@H](O)CN2C(=O)[C@@H](NC(=O)C2(F)CC2)C(C)(C)C)c(OCCCCCCN2CCN(Cc3ccc(-c4cn([C@H]5CC[C@H](O)CC5)c5nc(NCCC(F)(F)F)ncc45)cc3)CC2)c1 [I-212, (2S,4R)-1-[(2S)-2-[(1-fluorocyclopropyl)formamido]-3,3-dimethylbutanoyl]-4-hydroxy-N-[[4-(4-methyl-1,3-thiazol-5-yl)-2-[(6-[4-[(4-[7-[trans-4-hydroxycyclohexyl]-2-[(3,3,3-trifluoropropyl)amino]pyrrolo[2,3-d]pyrimidin-5-yl]phenyl)methyl]piperazin-1-yl]hexyl)oxy]phenyl]methyl]pyrrolidine-2-carboxamide]
> 50% | Cc1ncsc1-c1ccc(CNC(=O)[C@@H]2C[C@@H](O)CN2C(=O)[C@@H](NC(=O)C2(F)CC2)C(C)(C)C)c(OCCCCCCCN2CCN(Cc3ccc(-c4cn([C@H]5CC[C@H](O)CC5)c5nc(NCCC(F)(F)F)ncc45)cc3)CC2)c1 [I-213, (2S,4R)-1-[(2S)-2-[(1-fluorocyclopropyl)formamido]-3,3-dimethylbutanoyl]-4-hydroxy-N-[[4-(4-methyl-1,3-thiazol-5-yl)-2-[(7-[4-[(4-[7-[trans-4-hydroxycyclohexyl]-2-[(3,3,3-trifluoropropyl)amino]pyrrolo[2,3-d]pyrimidin-5-yl]phenyl)methyl]piperazin-1-yl]heptyl)oxy]phenyl]methyl]pyrrolidine-2-carboxamide]
> 50% | Cc1ncsc1-c1ccc(CNC(=O)[C@@H]2C[C@@H](O)CN2C(=O)[C@@H](NC(=O)C2(F)CC2)C(C)(C)C)c(OCCOCCOCCN2CCN(Cc3ccc(-c4cn([C@H]5CC[C@H](O)CC5)c5nc(NCCC(F)(F)F)ncc45)cc3)CC2)c1 [I-214, (2S,4R)-1-[(2S)-2-[(1-fluorocyclopropyl)formamido]-3,3-dimethylbutanoyl]-4-hydroxy-N-[[4-(4-methyl-1,3-thiazol-5-yl)-2-[2-[2-(2-[4-[(4-[7-[trans-4-hydroxycyclohexyl]-2-[(3,3,3-trifluoropropyl)amino]pyrrolo[2,3-d]pyrimidin-5-yl]phenyl)methyl]piperazin-1-yl]ethoxy)ethoxy]ethoxy]phenyl]methyl]pyrrolidine-2-carboxamide]
